According to the NIST ThermoML archive (doi:10.1016/j.jct.2016.08.001):

Assays:
[1] = refractive index (Na D-line) (dimensionless); xn = mol fraction of the nth substance listed; details: 100 kPa, Liquid, Standard Abbe refractometry
[2] = xn = mol fraction of the nth substance listed; details: 100 kPa, Liquid; for speed of sound: Frequency=3 MHz, Sing-around technique in a fixed-path interferometer; for mass density: Vibrating tube method

Nc1ccccc1 [aniline] + CCOC(=O)OCC
Details | mass density, [2] [kg/m3] | refractive index, [1] | speed of sound, [2] [m/s]
298.15 K, x2 = 0 | 1017.1 | 1.5826 | 1636.8
298.15 K, x2 = 0.073 | 1014.2 | 1.5649 | 1594.4
298.15 K, x2 = 0.1652 | 1010.2 | 1.5435 | 1543.3
298.15 K, x2 = 0.2537 | 1006.4 | 1.5237 | 1497.7
298.15 K, x2 = 0.3387 | 1002.6 | 1.5053 | 1455.9
298.15 K, x2 = 0.4432 | 998 | 1.4835 | 1407.9
298.15 K, x2 = 0.5468 | 993 | 1.4626 | 1361.3
298.15 K, x2 = 0.6546 | 987.7 | 1.4419 | 1316
298.15 K, x2 = 0.7559 | 982.5 | 1.4235 | 1274.2
298.15 K, x2 = 0.884 | 975.9 | 1.4016 | 1222.6
303.15 K, x2 = 0 | 1012.7 | 1.5793 | 1617.5
303.15 K, x2 = 0.073 | 1009.8 | 1.562 | 1575.1
303.15 K, x2 = 0.1652 | 1005.7 | 1.5408 | 1523.9
303.15 K, x2 = 0.2537 | 1001.8 | 1.5212 | 1478.3
303.15 K, x2 = 0.3387 | 997.9 | 1.5029 | 1436.4
303.15 K, x2 = 0.4432 | 993.2 | 1.4813 | 1388.2
303.15 K, x2 = 0.5468 | 988.1 | 1.4606 | 1341.5
303.15 K, x2 = 0.6546 | 982.6 | 1.4401 | 1296
303.15 K, x2 = 0.7559 | 977.3 | 1.4216 | 1254.1
303.15 K, x2 = 0.884 | 970.5 | 1.3995 | 1202.3
308.15 K, x2 = 0 | 1008.4 | 1.576 | 1598.3
308.15 K, x2 = 0.073 | 1005.4 | 1.559 | 1555.8
308.15 K, x2 = 0.1652 | 1001.2 | 1.538 | 1504.6
308.15 K, x2 = 0.2537 | 997.1 | 1.5187 | 1458.5
308.15 K, x2 = 0.3387 | 993.2 | 1.5006 | 1416.8
308.15 K, x2 = 0.4432 | 988.3 | 1.4791 | 1368.5
308.15 K, x2 = 0.5468 | 983.1 | 1.4586 | 1321.7
308.15 K, x2 = 0.6546 | 977.5 | 1.4381 | 1276
308.15 K, x2 = 0.7559 | 972 | 1.4196 | 1234.1
308.15 K, x2 = 0.884 | 965.1 | 1.3974 | 1182.1
313.15 K, x2 = 0 | 1004.1 | 1.5727 | 1579.1
313.15 K, x2 = 0.073 | 1001 | 1.556 | 1536.6
313.15 K, x2 = 0.1652 | 996.6 | 1.5354 | 1485.3
313.15 K, x2 = 0.2537 | 992.5 | 1.5162 | 1439.1
313.15 K, x2 = 0.3387 | 988.5 | 1.4983 | 1397.4
313.15 K, x2 = 0.4432 | 983.5 | 1.477 | 1349
313.15 K, x2 = 0.5468 | 978.1 | 1.4566 | 1302
313.15 K, x2 = 0.6546 | 972.4 | 1.4362 | 1256.3
313.15 K, x2 = 0.7559 | 966.8 | 1.4176 | 1214.2
313.15 K, x2 = 0.884 | 959.8 | 1.3954 | 1162.1
318.15 K, x2 = 0 | 999.7 | 1.5694 | 1560
318.15 K, x2 = 0.073 | 996.5 | 1.5531 | 1517.6
318.15 K, x2 = 0.1652 | 992.1 | 1.5327 | 1466
318.15 K, x2 = 0.2537 | 987.9 | 1.5137 | 1419.8
318.15 K, x2 = 0.3387 | 983.7 | 1.496 | 1378
318.15 K, x2 = 0.4432 | 978.6 | 1.4749 | 1329.5
318.15 K, x2 = 0.5468 | 973.1 | 1.4545 | 1282.5
318.15 K, x2 = 0.6546 | 967.2 | 1.4343 | 1236.6
318.15 K, x2 = 0.7559 | 961.4 | 1.4156 | 1194.5
318.15 K, x2 = 0.884 | 954.3 | 1.3933 | 1142.2
323.15 K, x2 = 0 | 995.4 | 1.5661 | 1540.9
323.15 K, x2 = 0.073 | 992.1 | 1.5501 | 1498.2
323.15 K, x2 = 0.1652 | 987.6 | 1.5302 | 1446.8
323.15 K, x2 = 0.2537 | 983.2 | 1.5113 | 1400.5
323.15 K, x2 = 0.3387 | 979 | 1.4937 | 1358.7
323.15 K, x2 = 0.4432 | 973.7 | 1.4728 | 1310.1
323.15 K, x2 = 0.5468 | 968.1 | 1.4525 | 1263
323.15 K, x2 = 0.6546 | 962 | 1.4323 | 1217.1
323.15 K, x2 = 0.7559 | 956.1 | 1.4138 | 1174.9
323.15 K, x2 = 0.884 | 948.8 | 1.3913 | 1122.5
